Source: patent US9688669B2, “Oxazolidinones as modulators of mGluR5” (BRISTOL-MYERS SQUIBB COMPANY, priority 2013, dated 2017)

Molecular target: human mGluR5A (Homo sapiens (Human), UniProt P41594)
Assay: mGluR5 FLIPR Assay
Type: cell-based
Conditions: positive modulator activity, HEK293 (ZF) cells with human mGluR5A and rat GLAST, Ca++ response to ~EC10 l-glutamate
Procedure: HEK293 (ZF) cells stably transfected with human mGluR5A (pIRES neo) and the rat glutamate-aspartate transporter (GLAST; pIRES puro) are grown in a monolayer culture at 37° C. in 5% CO2 and fed with Minimum Essential Medium (MEM) supplemented with 10% dialysed fetal bovine serum. […] Plates are incubated in dye at 37° C. in 5% CO2 for 60 minutes prior to delivery of test compounds in assay buffer. Test compounds are incubated with cells in the presence of dye for 10 minutes prior to being read on the FLIPR platform (Molecular Devices). A Ca^++ signal is induced in the assay plates via the delivery of an ˜EC10 concentration of the endogenous agonist 1-glutamate; images are acquired at 1 Hz for 100 seconds post-delivery of agonist stimulus. Positive modulator activity (i.e. the ability of test compounds to increase the Ca^++ response to a sub-maximal concentration of agonist) is normalized to a saturating concentration of a known mGluR5 PAM run in each assay plate. An EC50 concentration of test compounds is derived from 4-parameter logistic curve fits of transformed fluoresence data via proprietary software suite.

Sequence of human mGluR5A (P41594 other isoform, or with tags, fused parts or gaps): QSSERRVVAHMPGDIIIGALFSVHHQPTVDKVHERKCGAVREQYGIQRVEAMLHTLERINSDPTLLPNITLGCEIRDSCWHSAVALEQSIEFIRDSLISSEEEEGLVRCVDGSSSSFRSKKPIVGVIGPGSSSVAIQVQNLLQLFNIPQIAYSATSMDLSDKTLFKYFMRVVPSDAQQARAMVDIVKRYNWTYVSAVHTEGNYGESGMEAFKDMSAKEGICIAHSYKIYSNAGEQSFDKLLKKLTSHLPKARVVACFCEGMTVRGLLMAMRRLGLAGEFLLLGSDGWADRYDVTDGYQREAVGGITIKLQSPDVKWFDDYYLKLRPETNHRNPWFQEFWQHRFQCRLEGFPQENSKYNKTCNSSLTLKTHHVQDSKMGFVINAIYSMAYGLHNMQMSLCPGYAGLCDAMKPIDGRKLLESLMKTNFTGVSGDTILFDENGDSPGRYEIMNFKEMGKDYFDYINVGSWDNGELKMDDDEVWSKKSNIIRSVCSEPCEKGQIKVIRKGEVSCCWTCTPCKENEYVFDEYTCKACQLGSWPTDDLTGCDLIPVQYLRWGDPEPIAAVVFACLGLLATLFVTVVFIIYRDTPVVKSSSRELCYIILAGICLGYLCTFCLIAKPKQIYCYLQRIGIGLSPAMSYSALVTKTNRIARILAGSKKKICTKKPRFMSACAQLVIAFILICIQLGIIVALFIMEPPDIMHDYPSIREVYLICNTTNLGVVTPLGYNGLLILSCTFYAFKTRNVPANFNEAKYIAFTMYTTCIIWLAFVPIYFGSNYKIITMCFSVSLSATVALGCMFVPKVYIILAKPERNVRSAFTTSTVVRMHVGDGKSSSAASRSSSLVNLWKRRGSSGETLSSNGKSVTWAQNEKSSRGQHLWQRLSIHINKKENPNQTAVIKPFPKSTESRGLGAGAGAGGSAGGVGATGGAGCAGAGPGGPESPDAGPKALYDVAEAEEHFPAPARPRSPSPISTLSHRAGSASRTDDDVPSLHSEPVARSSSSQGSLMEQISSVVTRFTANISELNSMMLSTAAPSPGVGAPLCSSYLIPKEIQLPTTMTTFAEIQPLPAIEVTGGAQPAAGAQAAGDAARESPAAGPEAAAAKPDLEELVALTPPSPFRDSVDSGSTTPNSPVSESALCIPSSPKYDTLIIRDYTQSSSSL

| SMILES | EC50 [µM] |
| --- | --- |
| COCC(O)CC#Cc1cncc([C@H]2NC(=O)O[C@@H]2c2cccc(F)c2)c1 (stereo partly drawn) [Example 37] | 0.383 |
| CCCC(O)C#Cc1cncc([C@H]2NC(=O)O[C@@H]2c2cccc(F)c2)c1 (single isomer, unassigned) [Example 15] | 0.0204 |
| CCC(C)(O)C#Cc1cncc([C@H]2NC(=O)O[C@@H]2c2cccc(F)c2)c1 (stereo partly drawn) [Example 16] | > 3.23 |
| CCCCC#Cc1cncc([C@H]2NC(=O)O[C@@H]2c2cccc(F)c2)c1 [Example 3] | 0.0022 |
| Cc1ccn(CC#Cc2cncc([C@H]3NC(=O)O[C@@H]3c3cccc(F)c3)c2)n1 [Example 26] | 0.0462 |
| CCC(O)CC#Cc1cncc([C@H]2NC(=O)O[C@@H]2c2cccc(F)c2)c1 (single isomer, unassigned) [Example 20] | 0.0608 |
| CC(O)CCC#Cc1cncc([C@H]2NC(=O)O[C@@H]2c2cccc(F)c2)c1 (single isomer, unassigned) [Example 7] | 0.0059 |
| O=C1N[C@H](c2cncc(C#CCC3CC3)c2)[C@@H](c2cccc(F)c2)O1 [Example 4] | 0.0036 |
| O=C1N[C@H](c2cncc(C#CCn3cc(Cl)cn3)c2)[C@@H](c2cccc(F)c2)O1 [Example 27] | 0.0482 |
| O=C1N[C@H](c2cncc(C#CC3(O)CCCC3)c2)[C@@H](c2cccc(F)c2)O1 [Example 39] | 0.51 |
| O=C1N[C@H](c2cncc(C#CCOc3ccccc3)c2)[C@@H](c2cccc(F)c2)O1 [Example 24] | 0.0439 |
| CCCC(O)C#Cc1cncc([C@H]2NC(=O)O[C@@H]2c2cccc(F)c2)c1 (stereo partly drawn) [Example 12] | 0.0154 |
| COCCC#Cc1cncc([C@H]2NC(=O)O[C@@H]2c2cccc(F)c2)c1 [Example 17] | 0.0232 |
| CC(C)C(O)C#Cc1cncc([C@H]2NC(=O)O[C@@H]2c2cccc(F)c2)c1 (stereo partly drawn) [Example 28] | 0.0769 |
| O=C1N[C@H](c2cncc(C#CCOC3CCCCO3)c2)[C@@H](c2cccc(F)c2)O1 (stereo partly drawn) [Example 38] | 0.498 |
| O=C1N[C@H](c2cncc(C#CCN3CCCCC3)c2)[C@@H](c2cccc(F)c2)O1 [Example 41] | 0.73 |

| SMILES | EC50 [µM] |
| --- | --- |
| CC(C)(C)OCC#Cc1cncc([C@H]2NC(=O)O[C@@H]2c2cccc(F)c2)c1 [Example 34] | 0.244 |
| O=C1N[C@H](c2cncc(C#CCC3CC3(F)F)c2)[C@@H](c2cccc(F)c2)O1 (stereo partly drawn) [Example 29] | 0.0775 |
| CC(C)CC#Cc1cncc([C@H]2NC(=O)O[C@@H]2c2cccc(F)c2)c1 [Example 9] | 0.0114 |
| N#CCCC#Cc1cncc([C@H]2NC(=O)O[C@@H]2c2cccc(F)c2)c1 [Example 35] | 0.255 |
| O=C1N[C@H](c2cncc(C#CCC3CCC3)c2)[C@@H](c2cccc(F)c2)O1 [Example 1, (4R,5R)-4-(5-(3-Cyclobutylprop-1-yn-1-yl)pyridin-3-yl)-5-(3-fluorophenyl)oxazolidin-2-one] | 0.0017 |
| CCSCC#Cc1cncc([C@H]2NC(=O)O[C@@H]2c2cccc(F)c2)c1 [Example 2] | 0.002 |
| CC(C)CCC#Cc1cncc([C@H]2NC(=O)O[C@@H]2c2cccc(F)c2)c1 [Example 5] | 0.0047 |
| CC(O)CCC#Cc1cncc([C@H]2NC(=O)O[C@@H]2c2cccc(F)c2)c1 (stereo partly drawn) [Example 8] | 0.0123 |
| Cc1ccnn1CC#Cc1cncc([C@H]2NC(=O)O[C@@H]2c2cccc(F)c2)c1 [Example 31] | 0.108 |
| CC(O)CCC#Cc1cncc([C@H]2NC(=O)O[C@@H]2c2cccc(F)c2)c1 (stereo partly drawn) [Example 10] | 0.0126 |
| CN(C)CCC#Cc1cncc([C@H]2NC(=O)O[C@@H]2c2cccc(F)c2)c1 [Example 44] | > 1.61 |
| CCC(O)CC#Cc1cncc([C@H]2NC(=O)O[C@@H]2c2cccc(F)c2)c1 (single isomer, unassigned) [Example 19] | 0.0276 |
| CC(O)CC#Cc1cncc([C@H]2NC(=O)O[C@@H]2c2cccc(F)c2)c1 (stereo partly drawn) [Example 42] | > 1.61 |
| CC(C)(O)CC#Cc1cncc([C@H]2NC(=O)O[C@@H]2c2cccc(F)c2)c1 [Example 40] | 0.513 |
| CC(C)CC(O)C#Cc1cncc([C@H]2NC(=O)O[C@@H]2c2cccc(F)c2)c1 (stereo partly drawn) [Example 25] | 0.0452 |

The remaining lines, values ahead:

| EC50 [µM] | SMILES |
| --- | --- |
| 0.129 | CC1CC1C(O)C#Cc1cncc([C@H]2NC(=O)O[C@@H]2c2cccc(F)c2)c1 (stereo partly drawn) [Example 75] |
| > 1.61 | O=C1N[C@H](c2cncc(C#CCC3CCO3)c2)[C@@H](c2cccc(F)c2)O1 (stereo partly drawn) [Example 69] |
| 0.0962 | O=C1N[C@H](c2cncc(C#CC3(F)CCCCC3)c2)[C@@H](c2cccc(F)c2)O1 [Example 91, (4R,5R)-4-(5-((1-Fluorocyclohexyl)ethynyl)pyridin-3-yl)-5-(3-fluorophenyl)oxazolidin-2-one] |
| 0.204 | O=C1N[C@H](c2cncc(C#CC(O)C3CC3)c2)[C@@H](c2cccc(F)c2)O1 (stereo partly drawn) [Example 58] |
| > 1.61 | O=C1N[C@H](c2cncc(C#CCNC(=O)C(F)(F)F)c2)[C@@H](c2cccc(F)c2)O1 [Example 48] |
| 0.28 | N#Cc1cccc([C@H]2OC(=O)N[C@@H]2c2cncc(C#CC3CC(F)(F)C3)c2)c1 [Example 107, 3-((4R,5R)-4-(5-((3,3-Difluorocyclobutyl)ethynyl)pyridin-3-yl)-2-oxooxazolidin-5-yl)benzonitrile] |
| 0.351 | O=C1N[C@H](c2cncc(C#CC3CCCCC3)c2)[C@@H](c2cc(F)ccc2F)O1 [Example 81, (4R,5R)-4-(5-(Cyclohexylethynyl)pyridin-3-yl)-5-(2,5-difluorophenyl)oxazolidin-2-one] |
| > 1.61 | O=C1N[C@H](c2cncc(C#CCn3ncc4ccccc43)c2)[C@@H](c2cccc(F)c2)O1 [Example 49] |
| 1.31 | O=C1N[C@H](c2cncc(C#CC34CCC(CC3)CC4)c2)[C@@H](c2cc(F)ccc2F)O1 [Example 82, (4R,5R)-4-(5-(Bicyclo[2.2.2]octan-1-ylethynyl)pyridin-3-yl)-5-(2,5-difluorophenyl)oxazolidin-2-one] |
| > 3.23 | O=C1N[C@H](c2cc(C#CC3CC(F)(F)C3)ccn2)[C@@H](c2ccccc2)O1 [Example 112, (4R,5R)-4-(4-((3,3-Difluorocyclobutyl)ethynyl)pyridin-2-yl)-5-phenyloxazolidin-2-one] |
| 0.0805 | O=C1N[C@H](c2cncc(C#CC3CC(F)(F)C3)c2)[C@@H](c2ccc(F)c(F)c2F)O1 [Example 118, (4R,5R)-4-(5-((3,3-Difluorocyclobutyl)ethynyl)pyridin-3-yl)-5-(2,3,4-trifluorophenyl)oxazolidin-2-one] |
| 0.107 | Cc1cnn(CC#Cc2cncc([C@H]3NC(=O)O[C@@H]3c3cccc(F)c3)c2)c1 [Example 54] |
| 0.334 | O=C1N[C@H](c2cncc(C#CC(O)C3CC3(F)F)c2)[C@@H](c2cccc(F)c2)O1 (stereo partly drawn) [Example 76] |
| > 1.61 | O=C1N[C@H](c2cncc(C#CCC3(O)CCC3)c2)[C@@H](c2cccc(F)c2)O1 [Example 46] |
| > 3.23 | CC(C)(C)C#Cc1cncc([C@H]2NC(=O)O[C@@H]2c2cccc(F)c2)c1 [Example 61] |
| 0.0509 | O=C1N[C@H](c2cncc(C#CC3CCC(F)(F)CC3)c2)[C@@H](c2cccc(F)c2)O1 [Example 92, (4R,5R)-4-(5-((4,4-Difluorocyclohexyl)ethynyl)pyridin-3-yl)-5-(3-fluorophenyl)oxazolidin-2-one] |
| 0.0162 | CCOCC#Cc1cncc([C@H]2NC(=O)O[C@@H]2c2cccc(F)c2)c1 [Example 53] |
| 0.0166 | O=C1N[C@H](c2cncc(C#CC(O)CC3CC3)c2)[C@@H](c2cccc(F)c2)O1 (stereo partly drawn) [Example 72, (4R,5R)-4-(5-(4-Cyclopropyl-3-hydroxybut-1-yn-1-yl)pyridin-3-yl)-5-(3-fluorophenyl)oxazolidin-2-one] |
| 0.0152 | O=C1N[C@H](c2cncc(C#CCC3CCOC3)c2)[C@@H](c2cccc(F)c2)O1 (stereo partly drawn) [Example 66] |
| 0.0216 | O=C1N[C@H](c2cncc(C#CC3CC(F)(F)C3)c2)[C@@H](c2ccc(F)c(F)c2)O1 [Example 119, (4R,5R)-4-(5-((3,3-Difluorocyclobutyl)ethynyl)pyridin-3-yl)-5-(3,4-difluorophenyl)oxazolidin-2-one] |
| 0.458 | COCC#Cc1cncc([C@H]2NC(=O)O[C@@H]2c2cccc(F)c2)c1 [Example 60] |
| 3.67 | O=C1N[C@H](c2cncc(C#CC34CCC(CC3)CC4)c2)[C@@H](c2cccc(F)c2)O1 [Example 84, (4R,5R)-4-(5-(Bicyclo[2.2.2]octan-1-ylethynyl)pyridin-3-yl)-5-(3-fluorophenyl)oxazolidin-2-one] |
| 0.0093 | O=C1N[C@H](c2cncc(C#CCOCC(F)(F)F)c2)[C@@H](c2cccc(F)c2)O1 [Example 52] |
| 0.0109 | O=C1N[C@H](c2cncc(C#CCn3cccn3)c2)[C@@H](c2cccc(F)c2)O1 [Example 62] |
| 0.226 | O=C1N[C@H](c2cncc(C#CC(O)C3CC3)c2)[C@@H](c2cccc(F)c2)O1 (single isomer, unassigned) [Example 59] |
| > 3.23 | O=C1N[C@H](c2cccc(C#CC3CC(F)(F)C3)n2)[C@@H](c2ccccc2)O1 [Example 113, (4R,5R)-4-(6-((3,3-Difluorocyclobutyl)ethynyl)pyridin-2-yl)-5-phenyloxazolidin-2-one] |
| 0.0147 | O=C1N[C@H](c2cncc(C#CCC3CCOC3)c2)[C@@H](c2cccc(F)c2)O1 (stereo partly drawn) [Example 65] |
| > 1.61 | CC(=O)NCC#Cc1cncc([C@H]2NC(=O)O[C@@H]2c2cccc(F)c2)c1 [Example 45] |
| 0.0081 | CCCCCC#Cc1cncc([C@H]2NC(=O)O[C@@H]2c2cccc(F)c2)c1 [Example 51] |
